ChEMBL document CHEMBL3045802, “Synthesis and in vitro antitumor activity of new quinoline, pyrimido[4,5-b]quinoline, [1,2,3]triazino[4,5-b]quinoline, and [1,2,4]triazolo[2,3:3,4]pyrimido[6,5-b]quinoline analogs” (2013)

Tests used:
Assay type in all cases: functional
SK-MEL-2 = test: Cytotoxicity against Homo sapiens (human) SK-MEL-2 cells assessed as growth inhibition at 10 uM after 48 hr by coulter counter analysis; conditions: SK-MEL-2, 48 h, read-out: GI
SNB-75 = test: Cytotoxicity against Homo sapiens (human) SNB75 cells assessed as growth inhibition at 10 uM after 48 hr by coulter counter analysis; conditions: SNB-75, 48 h, read-out: GI
SNB-19 = test: Cytotoxicity against Homo sapiens (human) SNB19 cells assessed as growth inhibition at 10 uM after 48 hr by coulter counter analysis; conditions: SNB-19, 48 h, read-out: GI
SF-539 = test: Cytotoxicity against Homo sapiens (human) SF539 cells assessed as growth inhibition at 10 uM after 48 hr by coulter counter analysis; conditions: SF-539, 48 h, read-out: GI
OVCAR-3 = test: Cytotoxicity against Homo sapiens (human) OVCAR3 cells assessed as growth inhibition at 10 uM after 48 hr by coulter counter analysis; conditions: OVCAR-3, 48 h, read-out: GI
IGROV-1 = test: Cytotoxicity against Homo sapiens (human) IGROV1 cells assessed as growth inhibition at 10 uM after 48 hr by coulter counter analysis; conditions: IGROV-1, 48 h, read-out: GI
UACC-257 = test: Cytotoxicity against Homo sapiens (human) UACC257 cells assessed as growth inhibition at 10 uM after 48 hr by coulter counter analysis; conditions: UACC-257, 48 h, read-out: GI
SK-MEL-5 = test: Cytotoxicity against Homo sapiens (human) SK-MEL-5 cells assessed as growth inhibition at 10 uM after 48 hr by coulter counter analysis; conditions: SK-MEL-5, 48 h, read-out: GI
MDA-MB-468 = test: Cytotoxicity against Homo sapiens (human) MDA-MB-468 cells assessed as growth inhibition at 10 uM after 48 hr by coulter counter analysis; conditions: MDA-MB-468, 48 h, read-out: GI
T47D = test: Cytotoxicity against Homo sapiens (human) T47D cells assessed as growth inhibition at 10 uM after 48 hr by coulter counter analysis; conditions: read-out: GI
Hs-578T = test: Cytotoxicity against Homo sapiens (human) Hs578T cells assessed as growth inhibition at 10 uM after 48 hr by coulter counter analysis; conditions: read-out: GI
MDA-MB-231 = test: Cytotoxicity against Homo sapiens (human) MDA-MB-231 cells assessed as growth inhibition at 10 uM after 48 hr by coulter counter analysis; conditions: MDA-MB-231, 48 h, read-out: GI
PC-3 = test: Cytotoxicity against Homo sapiens (human) PC3 cells assessed as growth inhibition at 10 uM after 48 hr by coulter counter analysis; conditions: PC-3, 48 h, read-out: GI
UO-31 = test: Cytotoxicity against Homo sapiens (human) UO31 cells assessed as growth inhibition at 10 uM after 48 hr by coulter counter analysis; conditions: UO-31, 48 h, read-out: GI
SN12C = test: Cytotoxicity against Homo sapiens (human) SN12C cells assessed as growth inhibition at 10 uM after 48 hr by coulter counter analysis; conditions: read-out: GI
RXF 393 = test: Cytotoxicity against Homo sapiens (human) RXF393 cells assessed as growth inhibition at 10 uM after 48 hr by coulter counter analysis; conditions: RXF 393, 48 h, read-out: GI
CAKI-1 = test: Cytotoxicity against Homo sapiens (human) Caki1 cells assessed as growth inhibition at 10 uM after 48 hr by coulter counter analysis; conditions: CAKI-1, 48 h, read-out: GI
786-0 = test: Cytotoxicity against Homo sapiens (human) 786-0 cells assessed as growth inhibition at 10 uM after 48 hr by coulter counter analysis; conditions: 786-0, 48 h, read-out: GI
OVCAR-8 = test: Cytotoxicity against Homo sapiens (human) OVCAR8 cells assessed as growth inhibition at 10 uM after 48 hr by coulter counter analysis; conditions: OVCAR-8, 48 h, read-out: GI
SF-268 = test: Cytotoxicity against Homo sapiens (human) SF268 cells assessed as growth inhibition at 10 uM after 48 hr by coulter counter analysis; conditions: SF-268, 48 h, read-out: GI
KM12 = test: Cytotoxicity against Homo sapiens (human) KM12 cells assessed as growth inhibition at 10 uM after 48 hr by coulter counter analysis; conditions: KM12, 48 h, read-out: GI
SW-620 = test: Cytotoxicity against Homo sapiens (human) SW620 cells assessed as growth inhibition at 10 uM after 48 hr by coulter counter analysis; conditions: SW-620, 48 h, read-out: GI
HT-29 = test: Cytotoxicity against Homo sapiens (human) HT-29 cells assessed as growth inhibition at 10 uM after 48 hr by coulter counter analysis; conditions: HT-29, 48 h, read-out: GI
HCT-15 = test: Cytotoxicity against Homo sapiens (human) HCT15 cells assessed as growth inhibition at 10 uM after 48 hr by coulter counter analysis; conditions: HCT-15, 48 h, read-out: GI
HCT-116 = test: Cytotoxicity against Homo sapiens (human) HCT116 cells assessed as growth inhibition at 10 uM after 48 hr by coulter counter analysis; conditions: HCT-116, 48 h, read-out: GI
HCC 2998 = test: Cytotoxicity against Homo sapiens (human) HCC2998 cells assessed as growth inhibition at 10 uM after 48 hr by coulter counter analysis; conditions: HCC 2998, 48 h, read-out: GI
COLO 205 = test: Cytotoxicity against Homo sapiens (human) COLO205 cells assessed as growth inhibition at 10 uM after 48 hr by coulter counter analysis; conditions: COLO 205, 48 h, read-out: GI
NCI-H226 = test: Cytotoxicity against Homo sapiens (human) NCI-H226 cells assessed as growth inhibition at 10 uM after 48 hr by coulter counter analysis; conditions: NCI-H226, 48 h, read-out: GI
EKVX = test: Cytotoxicity against Homo sapiens (human) EKVX cells assessed as growth inhibition at 10 uM after 48 hr by coulter counter analysis; conditions: read-out: GI
HOP-62 = test: Cytotoxicity against Homo sapiens (human) HOP62 cells assessed as growth inhibition at 10 uM after 48 hr by coulter counter analysis; conditions: HOP-62, 48 h, read-out: GI
A549 = test: Cytotoxicity against Homo sapiens (human) A549 cells assessed as growth inhibition at 10 uM after 48 hr by coulter counter analysis; conditions: A549, 48 h, read-out: GI
SR = test: Cytotoxicity against Homo sapiens (human) SR cells assessed as growth inhibition at 10 uM after 48 hr by coulter counter analysis; conditions: read-out: GI
MOLT-4 = test: Cytotoxicity against Homo sapiens (human) MOLT4 cells assessed as growth inhibition at 10 uM after 48 hr by coulter counter analysis; conditions: MOLT-4, 48 h, read-out: GI
K562 = test: Cytotoxicity against Homo sapiens (human) K562 cells assessed as growth inhibition at 10 uM after 48 hr by coulter counter analysis; conditions: K562, 48 h, read-out: GI

Row | SMILES | inhibition of growth at 10 µM (SK-MEL-2) | inhibition of growth at 10 µM (SNB-75) | inhibition of growth at 10 µM (SNB-19) | inhibition of growth at 10 µM (SF-539) | inhibition of growth at 10 µM (OVCAR-3) | inhibition of growth at 10 µM (IGROV-1) | inhibition of growth at 10 µM (UACC-257) | inhibition of growth at 10 µM (SK-MEL-5) | inhibition of growth at 10 µM (MDA-MB-468) | inhibition of growth at 10 µM (T47D) | inhibition of growth at 10 µM (Hs-578T) | inhibition of growth at 10 µM (MDA-MB-231) | inhibition of growth at 10 µM (PC-3) | inhibition of growth at 10 µM (UO-31) | inhibition of growth at 10 µM (SN12C) | inhibition of growth at 10 µM (RXF 393) | inhibition of growth at 10 µM (CAKI-1) | inhibition of growth at 10 µM (786-0) | inhibition of growth at 10 µM (OVCAR-8) | inhibition of growth at 10 µM (SF-268) | also measured
1 | Oc1ccc(-c2nc3c4c(ncn3n2)NC2=C(CCCC2)C4c2ccc(Cl)cc2)cc1 (configuration not stated) | < 10% | 20.5% | < 10% | < 10% | < 10% | < 10% | < 10% | < 10% | < 10% | 15.8% | 14.1% | 20.5% | 10.4% | 29% | < 10% | < 10% | 24.6% | < 10% | < 10% | < 10% | inhibition of growth at 10 µM (KM12): < 10%; inhibition of growth at 10 µM (SW-620): < 10%; inhibition of growth at 10 µM (HT-29): < 10%; inhibition of growth at 10 µM (HCT-15): < 10%; inhibition of growth at 10 µM (HCT-116): < 10%; inhibition of growth at 10 µM (HCC 2998): < 10%; inhibition of growth at 10 µM (COLO 205): < 10%; inhibition of growth at 10 µM (NCI-H226): < 10%; inhibition of growth at 10 µM (EKVX): < 10%; inhibition of growth at 10 µM (HOP-62): 16.6%; inhibition of growth at 10 µM (A549): < 10%; inhibition of growth at 10 µM (SR): < 10%; inhibition of growth at 10 µM (MOLT-4): < 10%; inhibition of growth at 10 µM (K562): < 10%
2 | COc1ccc(C2C3=C(CCCC3)Nc3nc(-c4ccc(N(C)C)cc4)[nH]c(=O)c32)cc1OC (configuration not stated) | < 10% | < 10% | < 10% | < 10% | < 10% | < 10% | < 10% | < 10% | 10.8% | 14.9% | < 10% | < 10% | 11.4% | 29.4% | 12.9% | < 10% | 10.5% | < 10% | < 10% | < 10% | inhibition of growth at 10 µM (KM12): < 10%; inhibition of growth at 10 µM (SW-620): < 10%; inhibition of growth at 10 µM (HT-29): < 10%; inhibition of growth at 10 µM (HCT-15): < 10%; inhibition of growth at 10 µM (HCT-116): < 10%; inhibition of growth at 10 µM (HCC 2998): < 10%; inhibition of growth at 10 µM (COLO 205): < 10%; inhibition of growth at 10 µM (NCI-H226): 13.6%; inhibition of growth at 10 µM (EKVX): < 10%; inhibition of growth at 10 µM (HOP-62): < 10%; inhibition of growth at 10 µM (A549): < 10%; inhibition of growth at 10 µM (SR): < 10%; inhibition of growth at 10 µM (MOLT-4): < 10%; inhibition of growth at 10 µM (K562): < 10%
3 | COc1ccc(C2C3=C(CCCC3)Nc3nc(-c4ccccc4)[nH]c(=O)c32)cc1OC (configuration not stated) | < 10% | 28.4% | 10.7% | < 10% | < 10% | < 10% | < 10% | 10.9% | 21.2% | 21.1% | < 10% | < 10% | 13.5% | 48.6% | 10.8% | 14.4% | 23.4% | < 10% | < 10% | < 10% | inhibition of growth at 10 µM (KM12): < 10%; inhibition of growth at 10 µM (SW-620): < 10%; inhibition of growth at 10 µM (HT-29): < 10%; inhibition of growth at 10 µM (HCT-15): < 10%; inhibition of growth at 10 µM (HCT-116): < 10%; inhibition of growth at 10 µM (HCC 2998): < 10%; inhibition of growth at 10 µM (COLO 205): 15.9%; inhibition of growth at 10 µM (NCI-H226): 15.9%; inhibition of growth at 10 µM (EKVX): < 10%; inhibition of growth at 10 µM (HOP-62): 15.7%; inhibition of growth at 10 µM (A549): < 10%; inhibition of growth at 10 µM (SR): < 10%; inhibition of growth at 10 µM (MOLT-4): < 10%; inhibition of growth at 10 µM (K562): < 10%
